Our source for the IC50 values is patent US7713994B2 (Wyeth LLC, priority 2005, dated 2010).

One test deals with BT474. Kind of test: Cytotoxicity assay (SRB), BT474. It counts as cell-based. As to conditions: Homo sapiens, BT-474, 144 h, BT474 cells, 6 days, SRB; read-out: In Vitro Cellular Activity IC50 BT474. As for the experimental part:
(§1) BT474, HCT-116, LoVo and MCF-7 were maintained under 7% CO2 in RPMI 1640 medium supplemented with 10% fetal bovine serum and 50 µg/ml gentamicin.
(§2) Cells were plated in 96-well microtiter dishes (12000 cells/well for BT474, 4000 cells/well for HCT-116, 6000 cells/well for LoVo and 6000 cells/well for MCF-7) in RPMI 1640 medium containing 5% fetal bovine serum and 50 µg/ml gentamicin. The cells were allowed to incubate overnight at 37° C., 7% CO2. Compound dilutions were prepared using the same medium. HCT-116, LoVo and MCF-7 cells were cultured for three days and BT474 cells were cultured for 6 days, in the presence of each compound dilution. Untreated cells were included as controls. The percentage of surviving cells was determined using a protein binding dye (sulforhodamineB, SRB) assay. Cellular protein was precipitated in each well by the addition of 0.05 ml of 50% cold trichloroacetic acid (TCA). After 1 hour, the plates were washed extensively in dH2O and dried. The sulforhodamineB dye solution (0.08 mL of 0.4% SRB in 1% acetic acid) was added to each well, kept at room temperature for ten minutes, then washed in 1% acetic acid and dried. The dye was dissolved in 10 mM Tris-HCl (150 uL) and the absorbency read at 540 nm.

The next test deals with HCT-116. Kind of test: Cytotoxicity assay (SRB), HCT-116. It counts as cell-based. As to conditions: Homo sapiens, HCT-116, 72 h, HCT116 cells, 3 days, SRB; read-out: In Vitro Cellular Activity IC50 HCT116. The method, then:
as §1, §2

In a further test the test system is LoVo. Nature of the test: Cytotoxicity assay (SRB), LoVo. As to conditions: Homo sapiens, LoVo, 72 h, LoVo cells, 3 days, SRB; read-out: In Vitro Cellular Activity IC50 LOVO. It counts as cell-based. As for the experimental part:
as §1, §2

Another test deals with T1, cyclin D1/cdk 4 enzyme (Homo sapiens, UniProt P11802).
T1 construct: made in house; host or cells: Sf9 insect cells, recombinant baculovirus
Kind of test: CDK4 ELISA kinase assay (phospho-Rb ser 795 detection). As to conditions: In Vitro Enzyme Assay, cyclin D1/cdk 4, read-out: CDK4 IC50. It counts as biochemical. In a few lines: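 Screening was done at 10 ug/ml compound. Each partially purified cyclin/CDK complex, produced in baculovirus-infected Sf9 cells, phosphorylated a coated GST-Rb C-terminal fragment with 200 μM ATP, and Ser795 phosphorylation was quantified by HRP-ELISA at 450 nm.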
(In general: In an ELISA, binding on a coated surface is turned into a signal by an enzyme label.)

A further test has as its system MCF-7. Nature of the test: Cytotoxicity assay (SRB), MCF-7. It counts as cell-based. To be noted: Homo sapiens, MCF7, 72 h, MCF-7 cells, 3 days, SRB; read-out: In Vitro Cellular Activity IC50 MCF-7. The method, then: as §1, §2

T1 sequence (P11802 whole entry, species assumed): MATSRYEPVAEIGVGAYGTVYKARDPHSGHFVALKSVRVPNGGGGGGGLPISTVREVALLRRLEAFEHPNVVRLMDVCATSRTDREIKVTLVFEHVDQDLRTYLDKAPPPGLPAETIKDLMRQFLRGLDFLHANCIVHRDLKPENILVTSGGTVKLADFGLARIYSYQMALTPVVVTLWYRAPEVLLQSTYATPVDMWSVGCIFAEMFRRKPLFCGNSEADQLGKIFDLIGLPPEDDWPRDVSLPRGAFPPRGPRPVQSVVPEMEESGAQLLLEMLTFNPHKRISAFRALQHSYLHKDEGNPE
T1 sequence (P24385 whole entry partner, species assumed): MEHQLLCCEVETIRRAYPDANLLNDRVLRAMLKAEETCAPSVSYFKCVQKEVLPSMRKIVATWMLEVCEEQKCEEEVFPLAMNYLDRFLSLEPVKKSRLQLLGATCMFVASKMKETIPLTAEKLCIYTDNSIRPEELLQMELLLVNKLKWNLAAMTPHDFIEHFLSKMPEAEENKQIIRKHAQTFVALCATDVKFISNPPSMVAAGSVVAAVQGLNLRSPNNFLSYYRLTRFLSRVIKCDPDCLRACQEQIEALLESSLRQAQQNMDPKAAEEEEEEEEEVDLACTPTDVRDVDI

In general, IC50 refers to the midpoint of a concentration-inhibition curve. `CN1CCN(c2ccc(NC=C3C(=O)NC(=O)c4ccc(C=Cc5ccc(N)cc5)cc43)cc2)CC1` [Example 725, 6-[2-(4-Amino-phenyl)-vinyl]-4-{[4-(4-methyl-piperazin-1-yl)-phenylamino]-methylene}-4H-isoquinoline-1,3-dione]: the concentration for half-maximal inhibition (IC50) worked out at 19.5 µM in the test with BT474; 8 µM in the test with HCT-116; 29.9 µM in the test with LoVo; 2.9 µM on cyclin D1/cdk 4 enzyme; 29.3 µM with MCF-7.

As to `Cc1cccc(-c2ccc3c(c2)C(=CNc2ccc(CC#N)cc2)C(=O)NC3=O)c1` [Example 716, {4-[(1,3-Dioxo-6-m-tolyl-2,3-dihydro-1H-isoquinolin-4-ylidenemethyl)-amino]-phenyl}-acetonitrile], the half-inhibitory concentration (IC50) with BT474 is above 50 µM; in the test on HCT-116, above 50 µM; with LoVo it was above 50 µM; on cyclin D1/cdk 4 enzyme, 9.3 µM; in the test with MCF-7, 27.2 µM.

Regarding `NS(=O)(=O)c1ccc(CNC=C2C(=O)NC(=O)c3ccc(C=Cc4ccccn4)cc32)cc1` [Example 652, 4-({[1,3-Dioxo-6-(2-pyridin-2-yl-vinyl)-2,3-dihydro-1H-isoquinolin-4-ylidenemethyl]-amino}-methyl)-benzenesulfonamide], the half-inhibitory concentration (IC50) with BT474 was 28.5 µM; with HCT-116, above 50 µM; with LoVo, above 50 µM; at cyclin D1/cdk 4 enzyme, 2.4 µM; with MCF-7, 27 µM.

In the case of `NS(=O)(=O)c1ccc(CNC=C2C(=O)NC(=O)c3ccc(C=Cc4ccccc4)cc32)cc1` [Example 654, 4-{[(1,3-Dioxo-6-styryl-2,3-dihydro-1H-isoquinolin-4-ylidenemethyl)-amino]-methyl}-benzenesulfonamide], the half-inhibitory concentration (IC50) with BT474 is 3.1 µM; in the test with HCT-116, 2.4 µM; with LoVo it was 13.1 µM; on cyclin D1/cdk 4 enzyme it was 2 µM; in the test on MCF-7, 10.7 µM.

Regarding `N#CCc1ccc(NC=C2C(=O)NC(=O)c3ccc(-c4ccc(F)cc4)cc32)cc1` [Example 704, (4-{[6-(4-Fluoro-phenyl)-1,3-dioxo-2,3-dihydro-1H-isoquinolin-4-ylidenemethyl]-amino}-phenyl)-acetonitrile], the IC50 with BT474 was 26.4 µM; in the test with HCT-116, above 50 µM; with LoVo, above 50 µM; on cyclin D1/cdk 4 enzyme, 7 µM; in the test with MCF-7, 28.6 µM.

Consider `N=C(N)c1ccc(NC=C2C(=O)NCc3cc(Cl)ccc32)cc1` [Example 857, 4-[(7-Chloro-3-oxo-2,3-dihydro-1H-isoquinolin-4-ylidenemethyl)-amino]-benzamidine], for which the IC50 with BT474 was 24 µM; with HCT-116, 43.1 µM; with LoVo, above 50 µM; at cyclin D1/cdk 4 enzyme, 18.5 µM; with MCF-7 it was above 50 µM.

On to `Cc1ccc(-c2ccc3c(c2)C(=CNCc2ccc(S(N)(=O)=O)cc2)C(=O)NC3=O)cc1` [Example 752, 4-{[(1,3-Dioxo-6-p-tolyl-2,3-dihydro-1H-isoquinolin-4-ylidenemethyl)-amino]-methyl}-benzenesulfonamide], for which the IC50 in the test with BT474 amounted to 33.3 µM; in the test with HCT-116, 14.8 µM; in the test with LoVo it was 33.4 µM; on cyclin D1/cdk 4 enzyme, 1.3 µM; in the test on MCF-7, 18.5 µM.

With `NS(=O)(=O)c1ccc(CNC=C2C(=O)NC(=O)c3ccc(-c4csc5ccccc45)cc32)cc1` [Example 636, 4-{[(6-Benzo[b]thiophen-3-yl-1,3-dioxo-2,3-dihydro-1H-isoquinolin-4-ylidenemethyl)-amino]-methyl}-benzenesulfonamide], the 50% inhibitory concentration (IC50) with BT474 came to 39.7 µM; in the test on HCT-116, 31.2 µM; in the test with LoVo it was 15.8 µM; at cyclin D1/cdk 4 enzyme it was 3.4 µM; in the test with MCF-7 it was 18.4 µM.

As to `NS(=O)(=O)c1ccc(CNC=C2C(=O)NC(=O)c3ccc(-c4cccc(Cl)c4)cc32)cc1` [Example 750, 4-({[6-(3-Chloro-phenyl)-1,3-dioxo-2,3-dihydro-1H-isoquinolin-4-ylidenemethyl]-amino}-methyl)-benzenesulfonamide], the 50% inhibitory concentration (IC50) in the test with BT474 was above 50 µM; with HCT-116, 29.1 µM; in the test with LoVo it was 27.8 µM; on cyclin D1/cdk 4 enzyme, 2.5 µM; with MCF-7, 39 µM.

For the compound `O=C1NC(=O)c2ccc(-c3csc4ccccc34)cc2C1=CNCc1ccc(O)c(O)c1` [Example 645, 6-Benzo[b]thiophen-3-yl-4-[(3,4-dihydroxy-benzylamino)-methylene]-4H-isoquinoline-1,3-dione], the half-maximal inhibitory concentration (IC50) in the test on BT474 came out at 15.5 µM; in the test on HCT-116, 9 µM; with LoVo, 7.2 µM; at cyclin D1/cdk 4 enzyme it was 2.2 µM; in the test on MCF-7, 8.8 µM.

Turning to `NS(=O)(=O)c1ccc(CNC=C2C(=O)NC(=O)c3ccc(C=CC4CCCCC4)cc32)cc1` [Example 656, 4-({[6-(2-Cyclohexyl-vinyl)-1,3-dioxo-2,3-dihydro-1H-isoquinolin-4-ylidenemethyl]-amino}-methyl)-benzenesulfonamide], the IC50 was 13.4 µM in the test with BT474; 12.6 µM with HCT-116; 11.7 µM with LoVo; 4.8 µM on cyclin D1/cdk 4 enzyme; 12.2 µM in the test on MCF-7.

In the case of `CN1CCN(c2ccc(NC=C3C(=O)NC(=O)c4ccc(C=CC(O)CO)cc43)cc2)CC1` (centres unmarked) [Example 730, 6-(3,4-Dihydroxy-but-1-enyl)-4-{[4-(4-methyl-piperazin-1-yl)-phenylamino]-methylene}-4H-isoquinoline-1,3-dione], the half-inhibitory concentration (IC50) stood at 20.2 µM in the test on BT474; 17.1 µM with HCT-116; 28.8 µM with LoVo; 2.5 µM on cyclin D1/cdk 4 enzyme; 40.9 µM in the test on MCF-7.

In the case of `COc1cccc(-c2ccc3c(c2)C(=CNCc2ccc(S(N)(=O)=O)cc2)C(=O)NC3=O)c1` [Example 737, 4-({[6-(3-Methoxy-phenyl)-1,3-dioxo-2,3-dihydro-1H-isoquinolin-4-ylidenemethyl]-amino}-methyl)-benzenesulfonamide], the IC50 is above 50 µM in the test with BT474; 17.7 µM with HCT-116; 15.3 µM with LoVo; 6 µM on cyclin D1/cdk 4 enzyme; 12.7 µM in the test with MCF-7.

With `N#CCc1ccc(NC=C2C(=O)NC(=O)c3ccc(-c4cc5ccccc5s4)cc32)cc1` [Example 627, {4-[(6-Benzo[b]thiophen-2-yl-1,3-dioxo-2,3-dihydro-1H-isoquinolin-4-ylidenemethyl)-amino]-phenyl}-acetonitrile], the IC50 is 4.3 µM with BT474; above 50 µM in the test on HCT-116; above 50 µM with LoVo; 10.4 µM at cyclin D1/cdk 4 enzyme; 7.3 µM in the test on MCF-7.

As to `Cc1ccc(-c2ccc3c(c2)C(=CNc2ccc(CC#N)cc2)C(=O)NC3=O)cc1` [Example 715, {4-[(1,3-Dioxo-6-p-tolyl-2,3-dihydro-1H-isoquinolin-4-ylidenemethyl)-amino]-phenyl}-acetonitrile], the half-maximal inhibitory concentration (IC50) is 33.4 µM with BT474; 19.6 µM with HCT-116; 26 µM with LoVo; 9.3 µM at cyclin D1/cdk 4 enzyme; 24.8 µM in the test on MCF-7.

For the compound `O=C1NC(=O)c2ccc(C=Cc3ccc4ccccc4c3)cc2C1=CNCc1ccc(O)c(O)c1` [Example 661, 4-[(3,4-Dihydroxy-benzylamino)-methylene]-6-(2-naphthalen-2-yl-vinyl)-4H-isoquinoline-1,3-dione], the concentration for half-maximal inhibition (IC50) was 36.9 µM in the test with BT474; above 50 µM in the test with HCT-116; above 50 µM in the test with LoVo; 5.5 µM on cyclin D1/cdk 4 enzyme; 37.5 µM in the test with MCF-7.

As for `NS(=O)(=O)c1ccc(CNC=C2C(=O)NC(=O)c3ccc(-c4cc5ccccc5o4)cc32)cc1` [Example 634, 4-{[(6-Benzofuran-2-yl-1,3-dioxo-2,3-dihydro-1H-isoquinolin-4-ylidenemethyl)-amino]-methyl}-benzenesulfonamide], the IC50 is 47.8 µM with BT474; 19.1 µM in the test on HCT-116; 8.5 µM with LoVo; 9.9 µM at cyclin D1/cdk 4 enzyme; above 50 µM in the test with MCF-7.

Turning to `O=C1NCc2ccccc2C1=CNc1ccc(N2CCCCC2)cc1` [Example 860, 4-[(4-Piperidin-1-yl-phenylamino)-methylene]-1,4-dihydro-2H-isoquinolin-3-one], the IC50 in the test with BT474 was 35.2 µM; in the test with HCT-116, 33 µM; with LoVo it was 36.1 µM; in the test on MCF-7, 40 µM.
